# Earlier results as cited in patent US8617906B2, “Identification and screening of triptolide target molecules” (priority 2004, dated 2013).
# Assays:
# [1] = in vivo; cited from earlier work
# [2] = cited from earlier work
# [3] = system: IL-2; details: cited from earlier work
# [4] = system: human T cell lymphoma (Jurkat) cells; details: cited from earlier work
# [5] = system: Akt/PKB; details: cited from earlier work
# [6] = system: AML cells; details: cited from earlier work
# [7] = system: dopaminergic neurons; details: cited from earlier work
# [8] = 0.5-1 μg/kg; cited from earlier work
# [9] = molecular target: Thioredoxin reductase (Homo sapiens, UniProt Q16881); details: cited from earlier work
# Sequence of Thioredoxin reductase (Q16881 151-649 limits assumed): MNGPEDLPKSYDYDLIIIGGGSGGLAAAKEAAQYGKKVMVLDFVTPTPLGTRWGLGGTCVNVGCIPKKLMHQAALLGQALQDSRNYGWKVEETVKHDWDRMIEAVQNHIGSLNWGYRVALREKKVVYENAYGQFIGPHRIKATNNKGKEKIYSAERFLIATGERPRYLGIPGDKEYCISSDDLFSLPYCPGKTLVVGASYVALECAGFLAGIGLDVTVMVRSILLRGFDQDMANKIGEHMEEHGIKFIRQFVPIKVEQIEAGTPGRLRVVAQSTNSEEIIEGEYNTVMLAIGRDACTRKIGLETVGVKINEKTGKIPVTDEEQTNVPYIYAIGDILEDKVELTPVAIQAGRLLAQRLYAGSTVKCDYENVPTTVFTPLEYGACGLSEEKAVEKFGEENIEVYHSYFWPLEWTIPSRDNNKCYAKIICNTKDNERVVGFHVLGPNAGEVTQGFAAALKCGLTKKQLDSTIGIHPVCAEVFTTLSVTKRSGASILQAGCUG
compound,measurement,setting,value
14-succinimide ester of triptolide,bleomycin-induced PF,[1],block bleomycin-induced PF
CC(C)[C@]12O[C@H]1[C@@H]1O[C@]13[C@]1(O[C@H]1C[C@H]1C4=C(CC[C@@]13C)C(=O)OC4)[C@@H]2OC(=O)CCC(=O)[O-].[Na+] [PG490-88],conversion in vivo to triptolide,[2],converting in vivo to triptolide
"CC(C)[C@]12O[C@H]1[C@@H]1O[C@]13[C@]1(O[C@H]1C[C@H]1C4=C(CC[C@@]13C)C(=O)OC4)[C@H]2F [PG763, 14-deoxy-14α-fluoro triptolide]",inhibition of IL-2,[3],inhibition of IL-2
same,cytotoxicity,[4],cytotoxicity in human T cell lymphoma (Jurkat) cells
Cc1cc(C)c(/C=C2\C(=O)Nc3ccccc32)[nH]1 [SU-5416],VEGF-stimulated phosphorylation of Akt/PKB,[5],abolished
same,VEGF-induced colony formation / clonogenic response,[6],abolished
CC(C)[C@]1(O)[C@H](Cl)[C@@H]2O[C@]23[C@]2(O[C@H]2C[C@H]2C4=C(CC[C@@]23C)C(=O)OC4)[C@@H]1O [Tripchlorolide],dopaminergic neuron axonal elongation,[7],promotes dopaminergic neuron axonal elongation
same,protection from neurotoxic lesion induced by 1-methyl-4-phenylpyridinium ion,[7],protects dopaminergic neurons from a neurotoxic lesion
same,brain-derived neurotrophic factor mRNA expression,[7]; in situ hybridization,stimulates brain-derived neurotrophic factor mRNA expression
same,TNF-α and IL-2 levels in the brain,[8],attenuates the elevation of TNF-α and IL-2 levels in the brain
same,dopamine depletion,[8],attenuates dopamine depletion
same,recovery of rats undergoing neurosurgery,[8],improves recovery of rats undergoing neurosurgery
same,sparing of SN neurons,[8],significant sparing of SN neurons
same,survival of dopaminergic neurons,[8],increases the survival of dopaminergic neurons
same,conversion in vivo to triptolide,[2],prodrug of triptolide
CC(=O)OC[C@H]1O[C@@H]([S-])[C@H](OC(C)=O)[C@@H](OC(C)=O)[C@@H]1OC(C)=O.CCP(CC)CC.[Au+] [auranofin],thioredoxin reductase as drug target,[9],target of auranofin
